Data as given in ChEMBL document CHEMBL5050844 (2019).
pIC50: −log10 of the molar value.

Columns and labels:
[1] = biological target: E3 ubiquitin-protein ligase CBL-B (Homo sapiens, UniProt Q13191); assay: Inhibition of N-terminal Avi-tagged human CBL-B (36 to 427 residues) incubated with 60 nM Src kinase for 1.5 hrs followed by incubation with fluorescently labeled UbcH5B-Ub for 1 hr and measured by TR-FRET assay; format: single protein
[2] = Induction of anti-CD3/CD28 antibodies-stimulated human T cell activation at 4 uM assessed fold increase in IL-2 secretion measured by ELISA assay; format: functional, T cell line
[3] = Induction of anti-CD3/CD28 antibodies-stimulated human T cell activation at 1 uM assessed fold increase in IL-2 secretion measured by ELISA assay; format: functional, T cell line
[4] = Induction of anti-CD3/CD28 antibodies-stimulated human T cell activation at 0.3 uM assessed fold increase in IL-2 secretion measured by ELISA assay; format: functional, T cell line
[5] = Induction of anti-CD3 antibodies-stimulated human T cell activation at 8 uM assessed fold increase in IL-2 secretion measured by ELISA assay; format: functional, T cell line; note: reference of the scale not given here
[6] = Induction of anti-CD3 antibodies-stimulated human T cell activation at 1 uM assessed fold increase in IL-2 secretion measured by ELISA assay; format: functional, T cell line; note: reference of the scale not given here
[7] = Induction of anti-CD3/CD28 antibodies-stimulated human T cell activation at 4 uM assessed fold increase in CD25 expression measured by ELISA assay; format: functional, T cell line
[8] = Induction of anti-CD3/CD28 antibodies-stimulated human T cell activation at 1 uM assessed fold increase in CD25 expression measured by ELISA assay; format: functional, T cell line
[9] = Induction of anti-CD3/CD28 antibodies-stimulated human T cell activation at 0.3 uM assessed fold increase in CD25 expression measured by ELISA assay; format: functional, T cell line
[10] = Induction of anti-CD3 antibodies-stimulated human T cell activation at 8 uM assessed fold increase in CD25 expression measured by ELISA assay; format: functional, T cell line; note: reference of the scale not given here
[11] = Induction of anti-CD3 antibodies-stimulated human T cell activation at 1 uM assessed fold increase in CD25 expression measured by ELISA assay; format: functional, T cell line; note: reference of the scale not given here

Chain of E3 ubiquitin-protein ligase CBL-B (Q13191 whole entry, the tested form may be a part): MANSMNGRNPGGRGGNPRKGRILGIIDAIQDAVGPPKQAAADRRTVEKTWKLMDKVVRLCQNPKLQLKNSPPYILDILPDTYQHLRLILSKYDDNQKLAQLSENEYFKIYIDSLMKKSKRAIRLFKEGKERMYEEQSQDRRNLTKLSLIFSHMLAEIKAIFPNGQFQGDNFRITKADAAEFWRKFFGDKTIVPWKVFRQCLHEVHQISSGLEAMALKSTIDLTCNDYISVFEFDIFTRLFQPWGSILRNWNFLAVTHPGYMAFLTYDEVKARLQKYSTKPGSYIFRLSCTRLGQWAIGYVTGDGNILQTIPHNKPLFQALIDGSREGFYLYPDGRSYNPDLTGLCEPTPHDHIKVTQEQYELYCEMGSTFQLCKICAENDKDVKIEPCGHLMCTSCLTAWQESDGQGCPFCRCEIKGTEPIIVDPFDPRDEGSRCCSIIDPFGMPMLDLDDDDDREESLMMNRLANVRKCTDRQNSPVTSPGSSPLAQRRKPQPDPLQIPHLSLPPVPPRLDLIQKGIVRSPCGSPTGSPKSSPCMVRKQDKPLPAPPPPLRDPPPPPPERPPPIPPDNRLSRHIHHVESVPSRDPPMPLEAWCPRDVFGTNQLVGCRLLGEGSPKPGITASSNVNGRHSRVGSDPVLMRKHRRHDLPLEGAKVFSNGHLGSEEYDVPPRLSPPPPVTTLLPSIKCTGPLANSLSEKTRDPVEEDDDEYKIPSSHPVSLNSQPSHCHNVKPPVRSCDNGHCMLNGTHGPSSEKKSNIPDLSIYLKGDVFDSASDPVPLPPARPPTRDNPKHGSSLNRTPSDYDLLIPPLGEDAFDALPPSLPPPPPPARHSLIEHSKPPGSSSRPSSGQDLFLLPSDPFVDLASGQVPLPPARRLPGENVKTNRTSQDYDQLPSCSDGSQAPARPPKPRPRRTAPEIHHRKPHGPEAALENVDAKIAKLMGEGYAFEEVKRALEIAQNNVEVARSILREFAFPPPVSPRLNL

Row | SMILES | pIC50 [1] | fold change (FC) [2] | fold change (FC) [3] | fold change (FC) [4] | fold change (FC) [5] | fold change (FC) [6] | fold change (FC) [7] | fold change (FC) [8] | fold change (FC) [9] | fold change (FC) [10] | fold change (FC) [11]
1 | C[C@H]1CN(C)CCN1c1cc2c(c(C(F)(F)F)c1)CN(c1cccc([C@@](C)(F)C(F)(F)c3nncn3C)c1)C2=O | > 7.00 | >=7.5 | 5 | 1.01 | >=0.201 | 0.101 | 1.31 | 1.01 | 1.01 | >=1.001 | >=1.001
2 | Cn1cnnc1CC1(c2cccc(N3Cc4c(cc(CN5CC(C#N)C5)cc4C(F)(F)F)C3=O)c2)COC1 | > 7.00 | >=7.5 | 5 | 2.51 | >=0.201 | 0.151 | 1.31 | 1.01 | 1.01 | >=1.001 | 0.801
3 | Cn1cnnc1CC(C)(C)c1cccc(N2Cc3c(cccc3C(F)(F)F)C2=O)c1 | > 7.00 | >=7.5 | 2.51 | 1.01 | >=0.201 | >=0.201 | 1.51 | 1.01 | 1.01 | >=1.001 | 0.801
4 | Cn1cnnc1CC1(c2cccc(N3Cc4c(cc(CN5CC(C)(F)C5)cc4C(F)(F)F)C3=O)c2)COC1 | > 7.00 | >=7.5 | >=7.5 | >=7.5 | >=0.201 | >=0.201 | 1.51 | 1.51 | 1.31 | >=1.001 | >=1.001
5 | C[C@H](Sc1nncn1C)c1cccc(NC(=O)c2ccc(CO)c(C3CC3)n2)c1 | > 7.00 | 5 | 2.51 | 1.01 | 0.101 | <=0.05 | 1.31 | 1.01 | 1.01 | 0.801 | <=0.6
6 | C[C@H](Cc1nncn1C)c1cccc(N2Cc3c(cc([C@H](C)N4CC(O)C4)cc3C(F)(F)F)C2=O)c1 | > 7.00 | >=7.5 | >=7.5 | 5 | >=0.201 | >=0.201 | 1.31 | 1.31 | 1.01 | >=1.001 | >=1.001
7 | CN1CC2CCC(C1)N2c1cc2c(c(C(F)(F)F)c1)CN(c1cccc([C@@](C)(F)C(F)(F)c3nncn3C)c1)C2=O | > 7.00 | >=7.5 | >=7.5 | 5 | >=0.201 | >=0.201 | 1.51 | 1.51 | 1.31 | >=1.001 | >=1.001
8 | Cn1cnnc1CC1(c2cccc(N3Cc4c(cc(CN5C[C@@H](F)[C@@H](F)C5)cc4C(F)(F)F)C3=O)c2)COC1 | > 7.00 | >=7.5 | >=7.5 | >=7.5 | >=0.201 | 0.151 | 1.51 | 1.31 | 1.31 | >=1.001 | 0.801
9 | Cn1cnnc1CC(C)(C)c1cccc(NC(=O)c2cccc(C(F)(F)F)n2)c1 | > 7.00 | >=7.5 | 2.51 | 1.01 | >=0.201 | >=0.201 | 1.31 | 1.01 | 1.01 | >=1.001 | 0.801
10 | C[C@H](Cc1nncn1C)c1cccc(N2Cc3c(cc(-c4ccn[nH]4)cc3C(F)(F)F)C2=O)c1 | > 7.00 | >=7.5 | 5 | 2.51 | >=0.201 | >=0.201 | 1.31 | 1.31 | 1.01 | >=1.001 | >=1.001
11 | Cn1cnnc1CC1(c2cccc(N3Cc4c(cc(CO)cc4C(F)(F)F)C3=O)c2)COC1 | > 7.00 | >=7.5 | 5 | 2.51 | 0.051 | 0.101 | 1.51 | 1.31 | 1.01 | 0.601 | 0.601
12 | C[C@H](Sc1nncn1C)c1cccc(NC(=O)c2ccnc(C3CC3)n2)c1 | > 7.00 | 5 | 2.51 | <=1 | 0.051 | <=0.05 | 1.31 | 1.01 | 1.01 | >=1.001 | 0.601
13 | C[C@H](Cc1nncn1C)c1cccc(NC(=O)c2cccc(C(F)(F)F)n2)c1 | > 7.00 | >=7.5 | 5 | 2.51 | >=0.201 | >=0.201 | >=1.76 | >=1.76 | >=1.76 | >=1.001 | >=1.001
14 | Cn1cnnc1C(F)(F)[C@](C)(F)c1cccc(N2Cc3c(cc(CN4CC[C@H](C#N)C4)cc3C(F)(F)F)C2=O)c1 | > 7.00 | >=7.5 | >=7.5 | 5 | >=0.201 | >=0.201 | 1.31 | 1.31 | 1.01 | >=1.001 | >=1.001
15 | Cc1cc(C(=O)Nc2cccc(C3(Cc4nncn4C)COC3)c2)nc(C2CC2)c1 | > 7.00 | >=7.5 | >=7.5 | 5 | >=0.201 | >=0.201 | 1.51 | 1.31 | 1.31 | >=1.001 | >=1.001
16 | Cn1cnnc1C(F)(F)[C@](C)(F)c1cccc(N2Cc3c(cc(CN4CC(C(F)F)C4)cc3C(F)(F)F)C2=O)c1 | > 7.00 | >=7.5 | >=7.5 | 5 | 0.151 | >=0.201 | 1.31 | 1.31 | 1.31 | >=1.001 | >=1.001
